pIC50: −log10 of the molar value.
Tests used:
Type in all cases: functional, cell-based
MCF7 [1] = test: Cytotoxicity against human MCF7 cells by WST-1 assay
MCF7 [2] = test: Cytotoxicity against human tamoxifen-resistant MCF7 cells by WST-1 assay
[3] = Cytotoxicity against human MCF7/ADR cells by WST-1 assay; conditions: NCI/ADR-RES
MDA-MB-231 = test: Cytotoxicity against human MDA-MB-231 cells by WST-1 assay

| SMILES | pIC50 (MCF7 [1]) | pIC50 (MCF7 [2]) | pIC50 [3] | pIC50 (MDA-MB-231) |
| --- | --- | --- | --- | --- |
| CC[C@@]1(O)C(=O)OCc2c1cc1n(c2=O)Cc2cc3ccccc3nc2-1 [CAMPTOTHECIN] | 5.59 | 5.74 | 6.10 | 5.57 |
| C[C@]1(CO)CCC[C@]2(C)[C@@H]1C[C@@H](O)[C@@]13C[C@H](CC[C@@H]21)[C@@](O)(CC[C@@]1(O)C(=O)[C@]24C[C@@H]1CC[C@H]2[C@]1(C)CCC[C@](C)(CO)[C@H]1C[C@H]4O)C3=O [CROTONKINENSIN C] | < 4.52 | < 4.52 | < 4.52 | < 4.52 |
| CC(=O)OC[C@@]1(C)CCC[C@]2(C)[C@@H]1C[C@@H](O)[C@@]13C[C@H](CC[C@@H]21)[C@@](O)(CC[C@@]1(O)C(=O)[C@]24C[C@@H]1CC[C@H]2[C@]1(C)CCC[C@](C)(COC(C)=O)[C@H]1C[C@H]4O)C3=O [CROTONKINENSIN D] | 5.03 | 5.59 | 4.72 | 4.66 |
| COc1cccc2c1C(=O)c1c(O)c3c(c(O)c1C2=O)C[C@@](O)(C(=O)CO)C[C@@H]3O[C@H]1C[C@H](N)[C@H](O)[C@H](C)O1 [DOXORUBICIN] | – | – | 4.08 | – |
